Values quoted from earlier work as cited in patent US5272138A, “Naturally occurring gangliosides containing de-N-acetyl-sialic acid and their applications as modifiers of cell physiology” (The Biomembrane Institute, priority 1990, dated 1993).

Conditions: compared with lysolecithin, Taketomi and Kawamura 1970

With `CCCCCCCCCCCCCC=CC(O)C(N)COC1OC(CO)C(OC2OC(CO)C(O)C(OC3(C(=O)O)CC(O)C(N)C(C(O)C(O)CO)O3)C2O)C(O)C1O` (stereo not shown) as the molecule, how does the hemolytic activity read?
Its hemolytic activity is “twice that of lysolecithin”.
